{
  "source": "patent EP2228050A1",
  "about": "“Use of gamma-aminobutyric acid as a depigmenting agent” (priority 2009, dated 2010)",
  "key": {"[1]": {"system": "mélanocytes humains normaux", "experiment": "Cytotoxicity: viability of melanocytes by spectrophotometric assay of intracellular phosphatase activity (p-nitrophenyl phosphate, 405 nm)", "method": "On effectue la détermination sur des mélanocytes humains normaux obtenus à partir d'un sujet jeune (4 ans). Pour les réalisations des essais, les cellules ont été cultivées jusqu'à l'obtention de mono couches confluentes.\nLes cellules ont mises en incubation pendant 72 heures en l'absence (essai témoin) ou en présence de concentrations croissantes de composé E ou de chacun des produits essayés. Pour le composé E, on a essayé des concentrations de 0.003; 0.03; 0.075; 0.15; 0.5; 0.75; 1.5 et 3% (v/v) et pour le produit selon l'invention : 0.01; 0.1; 0.25; 0.5; 1; 2.5; 5; 10% (v/v).\nA titre de comparaison, on a préparé une solution à 10% d'acide kojique et une solution d'acide lactique à 30% (composition E).\nLes préparations essayées ont été ensuite diluées directement dans le milieu d'incubation des mélanocytes.\nA la fin de la période d'incubation, la viabilité des cellules a été évaluée par une méthode spectrophotométrique de dosage de l'activité des phosphatases intracellulaires.\nSelon la méthode de Yan T. et al. (Anal. Biochem. 24 (1996) 103-108), on dose le p-nitrophénol résultant de la transformation du phosphate de p-nitrophényle par les phosphatases intra-cellulaires des cellules viables.\nL'absorbance du p-nitrophénol libéré à 405 nm est directement proportionnelle au nombre des cellules viables présentes dans le puits de culture."}, "[2]": {"system": "mélanocytes humains normaux", "experiment": "Melano-modulating effect: intracellular melanin / protein ratio in monolayer melanocytes (step 1 single actives, step 2 complex)", "type": "cell-based", "conditions": "72 h", "method": "Ces essais ont été menés sur un modèle de mélanocytes humains normaux cultivés en mono couche.\nLes mélanocytes humains normaux ont été mis en incubation pendant 72 heures en l'absence (témoin) ou en présence d'un produit de référence (acide kojique 250 µM)) ou de concentrations croissantes des produits actifs essayés.\nDans cette méthode, on dose le rapport mélanine/protéines en pourcentage du témoin. On a déterminé également les valeurs obtenues avec le solvant seul et une solution d'acide kojique à 250 µM dans ce solvant(DMSO) pris comme substance de référence.\nTableau II Véhicule (DMSO) et produit de référence\nOn a utilisé des mélanocytes humains normaux issus d'un sujet jeune âgé de 4 ans. On les a cultivé en monocouche jusqu'à confluence de 80%.\nOn a employé comme inhibiteur de tyrosinase de référence, l'acide kojique à 250 µM.\nLes mélanocytes ont été mis en incubation pendant 72 heures à 37°C sous atmosphère humide et sous 5% de CO2 en l'absence (témoin) ou en présence d'acide kojique ou de concentrations croissantes de principes actifs à l'essai (0.1; 0.5 1%)\nA la fin de la période d'incubation, le contenu intracellulaire en mélanine a été quantifié après lyse cellulaire par mesure spectrophotométrique à 405nm.\nA la fin de la période d'incubation, les protéines contenues dans les lysats cellulaires ont été dosés par une méthode spectrocolorimétrique faisant appel au bleu de Coomassie (selon la méthode de Bradford M. Anal. Biochem. 72 (1976) 248-254).\nLes résultats sont donnés sous forme de pourcentage de mélanine par rapport aux témoins (moyenne + ou- déviation standard SD) calculés à partir de valeurs obtenues en µg de mélanine intracellulaire par mg de protéines totales du tapis cellulaire.\nOn a déterminé la significativité statistique des différences constatées entre les conditions des « témoin » et « Produits à l'essai » selon une analyse de variance à un seul facteur (ANOVA) suivi d'un test de Holm-Sidak (* = […] < 0,05)"}},
  "note": "Several values for one entry are separate records, joined by “and”; a condition that tells them apart may be missing. Equal values may be shown once. Read-outs that look alike come from different tables or passages of the source.",
  "data": [
    {"smiles": "NCCCC(=O)O", "note": "[A, acide gamma-aminobutyrique]", "values": [
      {"measurement": "dose à partir de laquelle un effet cytotoxique est détectable", "setting": "[1]; human, 4320 min", "value": 0.5, "unit": "%"}
    ]},
    {"smiles": "O=c1cc(CO)occ1O", "note": "[Acide Kojique, acide kojique]", "values": [
      {"measurement": "activity at 250 µM", "setting": "[2]; Melanocyte, step 1, Acide Kojique 250 µM in DMSO, mean, * p<0,05, read-out: mélanine / protéines (% du témoin) Moyenne", "value": 77.4, "unit": "%"},
      {"measurement": "activity at 250 µM", "setting": "[2]; Melanocyte, step 2, Acide kojique 250 µM, mean (controls mean 119,2), * p<0,05, read-out: Mélanines/ protéines (% du témoin) Moyenne", "value": 101, "unit": "%"},
      {"measurement": "activity at 250 µM", "setting": "[2]; Melanocyte, step 2, Acide kojique 250 µM, mean normalised to controls = 100, read-out: % témoin", "value": 84.5, "unit": "%"},
      {"measurement": "activity at 250 µM", "setting": "[2]; Melanocyte, step 2, Acide kojique 250 µM, single replicate (controls mean 119,2), read-out: Mélanines/ protéines (% du témoin)", "value": 106, "unit": "%"},
      {"measurement": "inhibition at 250 µM", "setting": "[2]; Melanocyte, step 2, acide kojique 250 µM, p < 0.05, read-out: réduction du contenu intracellulaire en mélanine", "value": 15.5, "unit": "%"},
      {"measurement": "Mélanines/ protéines (% du témoin)", "setting": "[2]; step 2, Acide kojique 250 µM, single replicate (controls mean 119,2), 4320 min, 250 µM", "value": "93,2 % du témoin and 102,8 % du témoin and 94,1 % du témoin and 97,9 % du témoin"}
    ]},
    {"smiles": "CC(O)C(=O)O", "note": "(centres unmarked) [Actif E, acide lactique]", "values": [
      {"measurement": "dose à partir de laquelle un effet cytotoxique est détectable", "setting": "[1]; 72 h, detectable = less than 80 % viable cells", "value": 0.03, "unit": "%"}
    ]}
  ]
}
